Test results as given in US20150224169A1, “COMPOUNDS AND METHODS FOR SELECTIVELY TARGETING CANCER STEM CELLS” (McMaster University, priority 2012, published 2015).
Where two headings read alike, the source gives them in different places.

Key:
[1] = system: variant neoplastic stem cells (v1O4) relative to normal stem cells (H9); assay: Selective-activity dose-response screening assay (cell counts, v1O4 versus H9); type: cell-based, human; details: dose-response curves FIG. 3B
Procedure: Briefly, variant neoplastic stem cells (v1O4) cells were seeded into Matrigel-coated 96 well plates (5000 cells/well) containing mouse embryonic fibroblast conditioned media (MEFCM) supplemented with 8 ng/mL bFGF, and treated for 72 hours with compounds dissolved in DMSO. The final concentration of each compound used in treatment was either 10 μM or 1 μM (n=3). Control wells were treated with 0.1% DMSO (low control) or 100 ng/ml BMP4 (high control to induce LOP). At the end of 72 hours, cells were fixed, stained with Hoechst and imaged by automated microscopy. GFP intensity and Hoechst signal were quantified as measures of LOP and cell count, respectively, and compounds with a Z-score of more than 3 standard deviations from the mean for reduced cell count and LOP were chosen as hits.
In the second stage also shown in FIG. 1, 8- or 10-point dilutions for each compound were tested on variant neoplastic stem cells (v1O4) and normal stem cells (H9 cells) cells to generate dose-response curves. […] Dose response data were fit with a 4-parameter Hill equation to derive EC50, slopes, min and max values using IDBS ActivityBase software. The EC50 values were then used to calculate a selective-activity potency ratio (H9 EC50/v1O4 EC50).

[2] = system: lineage-depleted human umbilical cord blood cells; assay: Methylcellulose assay, CFU formation; type: cell-based; details: for Normal hematopoietic progenitor/stem cell proliferation activity (CFU-forming potential of cord blood cells): 0.1 μM, treated one day, 14 days in methylcellulose
Excerpt: (§1) Methylcellulose assays provide a functional and quantitative measure of hematopoietic progenitor/stem cell proliferation/clonogenic potential based on the formation of colony-forming units (CFUs) in vitro. Hematopoietic progenitor/stem cells from lineage-depleted human umbilical cord blood are capable of proliferation and differentiation to all blood lineages. AML blast cells from leukemia patients are myeloid progenitor cells blocked in differentiation that are sustained by a self-renewing leukemic stem cell(s). In this experiment, lineage-depleted cord blood cells and AML samples were each treated with Nystatin for one day and then cultured in methylcellulose for 14 days after which the numbers of CFUs were determined.
(§2) Cord blood and AML patient cells were seeded in 96-well plates at 500 cells and 25000 cells respectively in 50 μL medium containing StemSpan™ (Stemcell Technologies), 200 ng/mL stem cell factor (SCF, R&D Systems), 200 ng/mL Flt-3 (R&D Systems) and 40 ng/mL thrombopoietin (TPO, Stemcell Technologies). Then, 50 μL StemSpan containing 0.2 μM, 2 μM or 20 μM compounds was added to each well containing the cells. The cells were incubated for 24 hours at 37° C., after which the compound medium was removed from the wells and replaced with 50 μL medium containing StemSpan, 100 ng/mL SCF, 100 ng/mL Flt-3 and 20 ng/mL TPO. The cells from each well were mixed with 500 μL Methocult™ (Stemcell Technologies, H4434), and seeded into 12-well plates. The samples were imaged and scored after 14 days of incubation at 37° C.

AML patient cells = type: cell-based, human; details: for Ability of AML cells to form CFUs / Selectivity ratio of total CFUs from cord blood cells versus blast CFUs from AML samples: 0.1 μM; for Ability of AML cells to form CFUs / CFU forming potential of AML cells: treated one day, 14 days in methylcellulose; for Selectivity ratio of total CFUs from cord blood cells versus blast CFUs from AML samples: normalized to 0.1% DMSO control, ratio greater than 1 = selective for AML
Excerpt: as §1, §2

[3] = system: variant neoplastic stem cells; details: Sachlos et al., 2012; cited from earlier work
[4] = higher concentrations (above 0.1 μM)

| Structure (SMILES) | Selectivity for cancer stem cells based on a single 10 μM concentration point [1] | Normal hematopoietic progenitor/stem cell proliferation activity (CFU-forming potential of cord blood cells) [2] | Ability of AML cells to form CFUs (AML patient cells) | Selectivity ratio of total CFUs from cord blood cells versus blast CFUs from AML samples (AML patient cells) | also measured |
| --- | --- | --- | --- | --- | --- |
| CCCCc1ccc2[nH]c(NC(=O)OC)nc2c1 [Parbendazole] | would have not have been considered selective | – | – | – | – |
| Nc1ccn([C@@H]2O[C@H](CO)[C@@H](O)[C@@H]2O)c(=O)n1 [AraC, cytarabine] | – | also affected the CFU-forming potential of cord blood cells | reduced the ability of AML samples to form CFUs | no statistically significant difference | Toxicity to cord blood cells in methylcellulose assay [2, 4]: toxic; Toxicity to AML cells in methylcellulose assay (AML patient cells; [4]): toxic |
| C[C@@H]1[C@H](O)[C@@H](C)/C=C/C=C/CC/C=C/C=C/C=C/C=C/C(O[C@H]2O[C@H](C)[C@@H](O)[C@H](N)[C@@H]2O)CC2O[C@](O)(CC(O)C(O)CCC(O)CC(O)CC(O)CC(=O)O[C@H]1C)CC(O)C2C(=O)O (some centres unmarked) [Nystatin] | – | little effect | reduced the ability of AML cells to form CFUs | 1.5 | CFU forming potential of AML cells (AML patient cells; 1 μM): no effect; CFU forming potential of AML cells (AML patient cells; 10 μM): no effect |
| CSc1ccc2c(c1)N(CCC1CCCCN1C)c1ccccc1S2 (centres unmarked) [Thioridazine] | – | – | – | – | Action on variant neoplastic stem cells [3]: inducing differentiation through a loss of pluripotency |
| CS(=O)(=O)O.Cn1cc(C2=C(c3cn(CCCSC(=N)N)c4ccccc34)C(=O)NC2=O)c2ccccc21 [Ro 31-8220 mesylate] | would have not have been considered selective | – | – | – | – |
| Nc1nc(O)c2[nH]nnc2n1 [Azaguanine-8] | would have not have been considered selective | – | – | – | – |
